Here are results for 17 molecules from patent publication US20260159520A1, “HETEROBIFUNCTIONAL COMPOUNDS AND METHODS OF TREATING DISEASE” (Halda Therapeutics OpCo, Inc., priority 2022, published 2026).

Common to all, as to type: cell-based
The test system of assay [1] is T-Rex 293 cell line SC3 cells having increased expression of androgen receptor protein. The assay can be described thus: Cellular growth inhibition, T-Rex 293 SC3 cells with doxycycline (increased androgen receptor expression). The conditions noted are these: with 10 ng/mL doxycycline (increased androgen receptor), 72 hours, CellTiter-Glo 2.0. As for the experimental part: (§1) The following types of cells were prepared for this experiment: (i) a T-Rex 293 cell line having increased expression of androgen receptor protein due to exposure to doxycycline and (ii) a T-Rex 293 cell line lacking increased expression of androgen receptor protein. Ability of the test compounds to inhibit proliferation of the foregoing cell types was evaluated according to the procedures set forth below.
(§2) The doxycycline-inducible androgen receptor protein expressing cell line was established using the following protocol: T-Rex 293 cells were purchased from Invitrogen (Cat #R71007) and transfected using Lipofectamine 2000 with the wild-type androgen receptor protein sequence cloned into the pcDNA4/TO vector. Transfected cells were selected using 400 μg/mL Zeocin (Invitrogen Cat #R25001). Following selection, single clones were raised and maintained in Dulbecco's Modified Eagle Medium (DMEM) supplemented with 10% w/w Tetracycline-free fetal bovine serum (FBS) and 250 μg/mL Zeocin. Clones were analyzed for expression of androgen receptor protein in the presence and absence of 10 ng/mL doxycycline (Sigma Cat #D9891), and a single doxycycline-inducible clone (hereinafter “SC3”) was selected for use in downstream assays.
(§3) The SC3 cells were seeded on poly-D-lysine coated, black clear-bottom 384-well plates at 2500/well, in 25 μL Phenol Red Free Dulbecco's Modified Eagle Medium (DMEM) supplemented with 10% w/w charcoal-dextran treated fetal bovine serum (FBS) and 1% w/w pen-strep, with or without 10 ng/mL doxycycline. Pen-Strep is a commercially available mixture of penicillin G and streptomycin, which is used in mammalian cell culture media to prevent bacterial contamination. Phenol Red Free Dulbecco's Modified Eagle Medium (DMEM) supplemented with 10% w/w charcoal-dextran treated fetal bovine serum (FBS) and 1% w/w pen-strep, with or without 10 ng/mL doxycycline is herein referred to as Treatment Medium. Following seeding of cells in the plates, the plates were spun at 300×g for 30 seconds, then equilibrated to room temperature for 30 minutes, and then deposited in a humidified tissue culture incubator maintained at 37° C. with 5% CO2.
(§4) At 24 hours after seeding of the cells, dilutions of test compound were prepared in DMSO and dissolved in Treatment Medium, to achieve a final DMSO concentration of 0.5% w/w, thereby providing the Test Compound Solution. A 25 μL aliquot of the Test Compound Solution was added to cells in the well plates. An equal volume of a solution containing DMSO and Treatment Medium was used as a negative control. Following treatment of cells with Test Compound Solution or said equal volume of a solution containing DMSO and Treatment Medium, the plates were spun at 300×g for 30 seconds, and then left in an incubator for 72 hours.
(§5) At the end of the treatment duration, cell viability was quantified with CellTiter-Glo 2.0 reagent (Promega Cat #G9243). For this purpose, plates were equilibrated to room temperature for 30 minutes, and then 25 μL of CellTiter-Glo 2.0 reagent was added to cells in the plate wells. Plates were then agitated on a shaker for two minutes at 500 rpm and subsequently incubated at room temperature for 10 minutes. Following incubation, the plates were spun at 3000×g for 30 seconds, then sealed with an optical adhesive cover, and luminescence readings were measured with an EnVision Plate Reader.
(§6) Data was normalized using zero luminescence for baseline. A four-parameter non-linear regression curve fit was applied to dose-response data in GraphPad Prism data analysis software to determine the half-maximal growth inhibitory concentration (GI50) for each test compound.
A general note: ATP-based viability assays read luminescence as a measure of living cells.

Assay [2] relates to T-Rex 293 cell line SC3 cells lacking increased expression of androgen receptor protein. The assay can be described thus: Cellular growth inhibition, T-Rex 293 SC3 cells without doxycycline. The conditions noted are these: not exposed to doxycycline, 72 hours, CellTiter-Glo 2.0. As for the experimental part: as §1, §2, §3, §4, §5, §6
Another assay relates to VCaP cells. The assay can be described thus: Cellular growth inhibition assay for VCaP cells. The conditions noted are these: Homo sapiens, 72 hours, CellTiter-Glo 2.0. As for the experimental part:
VCaP cells were purchased from American Type Cell Culture (ATCC Cat #CRL2876) and then seeded on poly-D-lysine coated, black clear-bottom 384-well plates at 5000/well in 25 μL Dulbecco's Modified Eagle Medium (DMEM) supplemented with 10% w/w Fetal bovine serum (FBS) and 1% w/w Pen-Strep. Pen-Strep is a commercially available mixture of penicillin G and streptomycin, which is used in mammalian cell culture media to prevent bacterial contamination. Dulbecco's Modified Eagle Medium (DMEM) supplemented with 10% w/w fetal bovine serum (FBS) and 1% w/w Pen-Strep is herein referred to as Treatment Medium. Following seeding of cells in the plates, the plates were spun at 300×g for 30 seconds, then equilibrated to room temperature for 30 minutes, and then deposited in a humidified tissue culture incubator maintained at 37° C. with 5% CO2.
as §4
as §5, with “Reader. Data was normalized using zero luminescence for baseline.” for “Reader.”
A four-parameter non-linear regression curve fit was applied to dose-response data in GraphPad Prism data analysis software to determine the half-maximal growth inhibitory concentration (GI50) for each test compound.

SMILES strings stand for the structures.

One may read the GI50 as the concentration at which growth is held to half of that of the control. `CC1(C)[C@H](NC(=O)c2cnc(N3CCC(OCCOCCOCCOCCOCCOCCOCCNS(=O)(=O)c4ccc(Nc5ncc(Br)c(Nc6cccc(F)c6C(N)=O)n5)cc4)CC3)nc2)C(C)(C)[C@H]1Oc1ccc(C#N)c(Cl)c1` [Compound I-16]: the GI50 in assay [1] and in assay [2] was over 3.5 µM throughout.

In the case of `CN(CCOCCOCCOCCOCCOCCOCCNS(=O)(=O)c1ccc(Nc2ncc(Br)c(Nc3cccc(F)c3C(N)=O)n2)cc1)c1ncc(C(=O)N[C@H]2C(C)(C)[C@H](Oc3ccc(C#N)c(Cl)c3)C2(C)C)cn1` [Compound I-21], the GI50 in assay [1] and in assay [2] was over 3.5 µM each time.

For the molecule `CCc1cnn2c(NCc3ccc(OCCCOC4CCN(c5ncc(C(=O)N[C@H]6C(C)(C)[C@H](Oc7ccc(C#N)c(Cl)c7)C6(C)C)cn5)CC4)nc3)cc(N3CCCC[C@H]3CCO)nc12` [Compound I-26], the figures for the GI50 in assay [1] and in assay [2] were 1 to 3.5 µM and over 3.5 µM, respectively.

Turning to `CCc1cnn2c(NCc3ccc(OCCCCCOC4CCN(c5ncc(C(=O)N[C@H]6C(C)(C)[C@H](Oc7ccc(C#N)c(Cl)c7)C6(C)C)cn5)CC4)nc3)cc(N3CCCC[C@H]3CCO)nc12` [Compound I-28], the GI50 is 0.1 to 1 µM in assay [1] and over 3.5 µM in assay [2].

On to `CCc1cnn2c(CCc3ccc(OCCCCCCOC4CCN(c5ncc(C(=O)N[C@H]6C(C)(C)[C@H](Oc7ccc(C#N)c(Cl)c7)C6(C)C)cn5)CC4)nc3)cc(N3CCCC[C@H]3CCO)nc12` [Compound I-29], for which the GI50 was 0.1 to 1 µM in assay [1] and over 3.5 µM in assay [2].

`CCc1cnn2c(NCc3ccc(OCCCCCCCOC4CCN(c5ncc(C(=O)N[C@H]6C(C)(C)[C@H](Oc7ccc(C#N)c(Cl)c7)C6(C)C)cn5)CC4)nc3)cc(N3CCCC[C@H]3CCO)nc12` [Compound I-30]: the GI50 in assay [1] and in assay [2] was over 3.5 µM each time.

`CCc1cnn2c(NCc3ccc(OCCCOCCOC4CCN(c5ncc(C(=O)N[C@H]6C(C)(C)[C@H](Oc7ccc(C#N)c(Cl)c7)C6(C)C)cn5)CC4)nc3)cc(N3CCCC[C@H]3CCO)nc12` [Compound I-32]: the GI50 was under 0.1 µM in assay [1], 1 to 3.5 µM in assay [2] and under 0.1 µM in the assay with VCaP cells.

As to `CCc1cnn2c(NCc3ccc(OCCOCCCOC4CCN(c5ncc(C(=O)N[C@H]6C(C)(C)[C@H](Oc7ccc(C#N)c(Cl)c7)C6(C)C)cn5)CC4)nc3)cc(N3CCCC[C@H]3CCO)nc12` [Compound I-33], the GI50 in assay [1] is under 0.1 µM; in assay [2], 1 to 3.5 µM; in the assay on VCaP cells it was 0.1 to 1 µM.

With `CCc1cnn2c(NCc3ccc(OCCCOCCCOC4CCN(c5ncc(C(=O)N[C@H]6C(C)(C)[C@H](Oc7ccc(C#N)c(Cl)c7)C6(C)C)cn5)CC4)nc3)cc(N3CCCC[C@H]3CCO)nc12` [Compound I-35], the GI50 in assay [1] is under 0.1 µM; in assay [2], 0.1 to 1 µM; in the assay with VCaP cells, 0.1 to 1 µM.

For the molecule `CCc1cnn2c(NCc3ccc(OCCOCCCCOC4CCN(c5ncc(C(=O)N[C@H]6C(C)(C)[C@H](Oc7ccc(C#N)c(Cl)c7)C6(C)C)cn5)CC4)nc3)cc(N3CCCC[C@H]3CCO)nc12` [Compound I-36], the GI50 is under 0.1 µM in assay [1], over 3.5 µM in assay [2] and under 0.1 µM in the assay with VCaP cells.

In the case of `CCc1cnn2c(NCc3ccc(OCCCCCOCCOC4CCN(c5ncc(C(=O)N[C@H]6C(C)(C)[C@H](Oc7ccc(C#N)c(Cl)c7)C6(C)C)cn5)CC4)nc3)cc(N3CCCC[C@H]3CCO)nc12` [Compound I-37], the concentration for 50% growth inhibition (GI50) was 0.1 to 1 µM in assay [1], over 3.5 µM in assay [2] and over 3.5 µM with VCaP cells.

With `CCc1cnn2c(NCc3ccc(OCCCCOCCCOC4CCN(c5ncc(C(=O)N[C@H]6C(C)(C)[C@H](Oc7ccc(C#N)c(Cl)c7)C6(C)C)cn5)CC4)nc3)cc(N3CCCC[C@H]3CCO)nc12` [Compound I-38], the GI50 was 0.1 to 1 µM in assay [1], over 3.5 µM in assay [2] and 0.1 to 1 µM in the assay on VCaP cells.

As for `CCc1cnn2c(NCc3ccc(OCCCOCCCCOC4CCN(c5ncc(C(=O)N[C@H]6C(C)(C)[C@H](Oc7ccc(C#N)c(Cl)c7)C6(C)C)cn5)CC4)nc3)cc(N3CCCC[C@H]3CCO)nc12` [Compound I-39], the GI50 in assay [1] is under 0.1 µM; in assay [2], over 3.5 µM; in the assay with VCaP cells, over 3.5 µM.

As to `CCc1cnn2c(NCc3ccc(OCCOCCCCCOC4CCN(c5ncc(C(=O)N[C@H]6C(C)(C)[C@H](Oc7ccc(C#N)c(Cl)c7)C6(C)C)cn5)CC4)nc3)cc(N3CCCC[C@H]3CCO)nc12` [Compound I-40], the 50% growth inhibitory concentration (GI50) in assay [1] was under 0.1 µM; in assay [2] it was over 3.5 µM; in the assay with VCaP cells, over 3.5 µM.

Regarding `CCc1cnn2c(NCc3ccc(OCCCC4CCN(CC5CCN(c6ncc(C(=O)N[C@H]7C(C)(C)[C@H](Oc8ccc(C#N)c(Cl)c8)C7(C)C)cn6)CC5)CC4)nc3)cc(N3CCCC[C@H]3CCO)nc12` [Compound I-53], the values for the GI50 in assay [1] and in assay [2] were under 0.1 µM and 0.1 to 1 µM, respectively.

For the molecule `CCc1cnn2c(NCc3ccc(OCCCN4CCN(CC5CCN(c6cnc(C(=O)N[C@H]7C(C)(C)[C@H](Oc8ccc(C#N)c(Cl)c8)C7(C)C)cn6)CC5)CC4)nc3)cc(N3CCCC[C@@H]3CCO)nc12` [Compound I-56, N-((1r,3r)-3-(3-chloro-4-cyanophenoxy)-2,2,4,4-tetramethylcyclobutyl)-5-(4-((4-(3-((5-(((3-ethyl-5-((R)-2-(2-hydroxyethyl)piperidin-1-yl)pyrazolo[1,5-a]pyrimidin-7-yl)amino)methyl)pyridin-2-yl)oxy)propyl)piperazin-1-yl)methyl)piperidin-1-yl)pyrazine-2-carboxamide], the 50% growth inhibitory concentration (GI50) (in assay [1]; in assay [2]; in the assay on VCaP cells) was 0.1 to 1 µM throughout.

Take `CCc1cnn2c(NCc3ccc(OCCCN4CCN(CC5CCN(c6ccc(C(=O)N[C@H]7C(C)(C)[C@H](Oc8ccc(C#N)c(Cl)c8)C7(C)C)nc6)CC5)CC4)nc3)cc(N3CCCC[C@@H]3CCO)nc12` [Compound I-57, N-((1r,3r)-3-(3-chloro-4-cyanophenoxy)-2,2,4,4-tetramethylcyclobutyl)-5-(4-((4-(3-((5-(((3-ethyl-5-((R)-2-(2-hydroxyethyl)piperidin-1-yl)pyrazolo[1,5-a]pyrimidin-7-yl)amino)methyl)pyridin-2-yl)oxy)propyl)piperazin-1-yl)methyl)piperidin-1-yl)picolinamide]: the GI50 (in assay [1]; in assay [2]; with VCaP cells) was 0.1 to 1 µM each time.
